{"source": "patent US10166290B2", "about": "“Intralesional (Intratumoral) dinitrochlorobenzene and associated compounds coadministered with checkpoint inhibitors for cancer treatment including treatment of metastatic cutaneous cancers” (priority 2017, dated 2019)", "key": {"[1]": {"test_system": "progressive, locally metastatic melanoma", "assay": "Intralesional DNCB injections into melanoma satellite / in transit metastatic lesions, case reports of three patients", "assay_type": "in vivo, human", "excerpt": "Following are the case reports of three long term (over ten year) survivors treated with intralesional DNCB in the setting of what was apparently uncontrollable, progressive, locally metastatic melanoma, ordinarily lethal as a result of subsequent progressive metastatic disease to the liver, lungs and/or brain.\nPatient #1 was […] when they presented for treatment with progressive satellitosis and in transit metastases in their right leg. Four years previously they had undergone elsewhere a wide excision and split thickness skin grafting for a Clark Level IV melanoma of their right calf. […] One month prior to their presentation with satellitosis, recurrence had been noticed in the skin of the right popliteal fossa, and slightly higher. Their surgeon had planned to do a local excision in the region but had desisted when, at the time of their skin incision, multiple metastatic deposits were grossly visible in the deep dermal and subcutaneous regions. […] Two weeks after presentation, at the time of their first round of intralesional injections, the patient was noted to have 14 metastatic lesions in the posterior thigh region. These were each infiltrated with xylocaine and injected with DNCB. Each lesion was individually marked and followed. It was later estimated that 13 of the 14 lesions injected on this round ultimately regressed. A month after the first round of injections the patient underwent a second round of injections into five lesions on the posterior thigh. Four weeks after their second round of injections, a third round of injections was carried out for 10 lesions which had newly appeared. […] Accordingly the patient was taken to the operating room and an excision was carried out. […]\nPatient #3 was […] when they saw their local physician in upstate New York because of a pigmented posterior scalp lesion. Biopsy at that time was originally read as a (benign) blue nevus. […] The reoccurance led to a rebiopsy, now one year after the original biopsy which had been read as benign. […]"}, "[2]": {"assay": "Side effects of intralesional DNCB injections in the case reports", "assay_type": "in vivo, human", "excerpt": "Patient #3 was […] when they saw their local physician in upstate New York because of a pigmented posterior scalp lesion. Biopsy at that time was originally read as a (benign) blue nevus. The diagnosis was later felt to be incorrect after a recurrent lesion at the same location continued to advance, becoming larger and bleeding when they combed their hair. The reoccurance led to a rebiopsy, now one year after the original biopsy which had been read as benign. […] A re-review of the slides from the first biopsy was then carried out. […] The patient was referred to the Memorial Sloane Kettering Hospital in New York City and was prepared for urgent wide excision and skin grafting of their posterior scalp lesions. […] The operative procedure was cancelled and the patient was referred. At the time of presentation initial radiographic evaluation for distant disease was negative. They received intralesional DNCB injections of between two and 10 satellite lesions every 4-6 weeks. On several occasions histologic or fine needle aspiration biopsy was carried out to continue to confirm the malignant nature of the lesions before intralesional injection. Biopsies were also carried out in order to confirm the absence of malignant cells in some post-injection inflammatory sites. […] Four months after their presentation, they were noted to have fewer than usual malignant lesions for injection, and received only 2 DNCB injections. However 1 month later they underwent 10 DNCB injections. One month after that they underwent DNCB injections of 8 malignant scalp lesions. Another month later they underwent intralesional DNCB injection of 10 malignant satellite scalp lesions. One and two months later they underwent DNCB injection of 8 lesions on each of the two visits. Five weeks later and 5 weeks after that, 2 lesions were injected on each visit. Chest xray and distant metastatic evaluations remained negative. The injection sites were being routinely pre-anesthetized with 0.5% lidocaine injections containing 1:100,000 epinephrine a few minutes before the injections with DNCB in acetone. Nevertheless the DNCB injection sites were uncomfortable for 4-6 hours after the lidocaine wore off, frequently with slight residual “soreness” the next day. Their last-mentioned round of two injections took place 11 months after the beginning of their injections. No new lesions were apparent for the next 2 months. The patient reported that after this last mentioned round of two injections, there was residual scalp discomfort for 8 days. […] Their strength and activity remained normal, including frequent vigorous dancing with their spouse. They often brought photographs of their scalp taken between visits. They occasionally reported sensations in uninjected areas in the scalp, ear or mastoid regions. No new lesions were apparent for 2 months.\n(§1) A drug mask and latex gloves should be used when working with the DNCB powder while preparing its dilution and preparation for injection. […] It should be noted that DNCB powder is irritating, and is also immunogenic because of its haptene like properties. […] Therefore preadministration of lidocaine or another injectable anesthetic should be used to infiltrate the tumor nodule injection site prior to the injection into the same site of the DNCB solution in acetone."}, "[3]": {"assay": "Solubility of DNCB powder in acetone", "assay_type": "physicochemical", "details": "acetone diluent", "excerpt": "as §1"}, "[4]": {"test_system": "metastatic cutaneous tumor nodules", "details": "some 53 rounds of intralesional treatment, published data (3), cited from earlier work"}}, "note": "Like-named read-outs stand apart in the source and are kept apart here.", "data": [{"compound": "O=[N+]([O-])c1ccc(Cl)c([N+](=O)[O-])c1", "note": "[DNCB, 2, 4 dinitrochlorobenzene]", "values": [{"measurement": "time apparently disease free between last injections and death", "setting": "[1]; Patient #1, after sixth round of injections", "result": 30, "unit": "years"}, {"measurement": "time patient remained well with no evidence of metastasis after end of injections", "setting": "[1]; Patient #2", "result": 12, "unit": "years"}, {"measurement": "period with no apparent melanoma following last intralesional injection", "setting": "[1]; Patient #3", "result": 18, "unit": "year"}, {"measurement": "constitutional symptoms such as fatigue, fever, or malaise", "setting": "[2]; Patient #3", "result": "no constitutional symptoms"}, {"measurement": "duration of injection site discomfort after the lidocaine wore off", "setting": "[2]; Patient #3, DNCB in acetone, sites pre-anesthetized with 0.5% lidocaine", "result": "4 to 6", "unit": "h"}, {"measurement": "facial swelling after injections", "setting": "[2]; Patient #3, after round of 3 lesions injected", "result": "mild facial swelling for a few days"}, {"measurement": "duration of residual scalp discomfort", "setting": "[2]; Patient #3, after round of two injections 11 months after beginning", "result": 8, "unit": "days"}, {"measurement": "local effect of the DNCB solution in acetone on injection", "setting": "[2]; solution in acetone", "result": "irritating locally, and causes pain at the injection site"}, {"measurement": "solubility in acetone", "setting": "[3]", "result": "ready solubility"}, {"measurement": "side effects of intralesional treatment", "setting": "[4]", "result": "local, consisting of erythema or ulceration, not life-threatening, and not associated with any internal organ damage or defects"}, {"measurement": "side effects of intralesional treatment", "setting": "[4]; listed as dinitrochlorobenzene", "result": "without the undesirable checkpoint inhibitor potential side effect of attacks against normal organs"}, {"measurement": "side effects of intralesional treatment", "setting": "[4]; listed as dinitrohalogenated compound", "result": "side effects essentially restricted to only side effects related to inflammation at the local injection sites"}]}]}
